Molecules are shown by their SMILES.

Series [1] in a line: in vitro. The note with it: mouse, liver microsomes.
Series [2] in a line: in vitro. The note with it: human, liver microsomes. (Liver microsomes are a subcellular fraction often used to study metabolism.)
The target of series [3] is Cathepsin D (Homo sapiens) (UniProt P07339). The settings on record: dose 182.0 nM, time 130.0 min.
Chain of Cathepsin D (Homo sapiens) (P07339 65-162 limits assumed): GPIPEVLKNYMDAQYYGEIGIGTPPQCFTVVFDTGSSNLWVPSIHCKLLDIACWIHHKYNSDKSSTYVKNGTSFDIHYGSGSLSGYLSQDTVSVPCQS
Chain of Cathepsin D (Homo sapiens) (P07339 169-412 limits assumed): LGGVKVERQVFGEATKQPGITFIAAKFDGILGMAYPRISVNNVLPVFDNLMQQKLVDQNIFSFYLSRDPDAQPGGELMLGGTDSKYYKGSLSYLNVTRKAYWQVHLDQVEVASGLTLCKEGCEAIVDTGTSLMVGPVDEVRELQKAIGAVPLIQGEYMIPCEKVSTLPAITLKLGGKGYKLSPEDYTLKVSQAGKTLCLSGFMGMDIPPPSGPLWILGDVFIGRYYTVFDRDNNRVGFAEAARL

In general, microsomal CLint refers to the capacity of the preparation to metabolise the compound, expressed as a volume cleared per time. Higher therefore signals faster metabolism. In the case of `COc1ccc(CC(=O)NC(=N)N[C@H](CC2CCCCC2)C(=O)Nc2cc(S(=O)(=O)N3CCN(C)CC3)ccc2C)cc1OC`, the microsomal CLint at 0.5 h, 1 µM in the series “in vitro [1]” amounted to 212 µL/min/mg; in the series “in vitro [2]”, 271 µL/min/mg. The matching figures for `Cc1ccc(S(=O)(=O)N(C)C)cc1NC(=O)[C@@H](CC1CCCCC1)NC(=N)NC(=O)c1ccc2c(c1)OCCO2`: 272 µL/min/mg and 253 µL/min/mg.

For `CNS(=O)(=O)c1ccc(C)c(NC(=O)[C@@H](CC2CCCCC2)NC(=N)NC(=O)Cc2cc(C(F)(F)F)cc(C(F)(F)F)c2)c1`, the microsomal CLint at 0.5 h, 1 µM in “in vitro [1]” was 187 µL/min/mg; in the series “in vitro [2]”, 175 µL/min/mg. For `Cc1ccc(S(=O)(=O)N(C)C)cc1NC(=O)[C@@H](CC1CCCCC1)NC(=N)NC(=O)Cc1cc(C(F)(F)F)cc(C(F)(F)F)c1`, in that order: 258 µL/min/mg and 246 µL/min/mg. The matching figures for `CCOC[C@@H](NC(=N)NC(=O)Cc1ccc(OC)c(OC)c1)C(=O)Nc1cc(S(N)(=O)=O)ccc1C`: 86.8 µL/min/mg and 59.1 µL/min/mg. Regarding `CNS(=O)(=O)c1ccc(C)c(NC(=O)[C@H](CC2CCCCC2)NC(=N)NC(=O)Cc2ccc(OC)c(OC)c2)c1`, the values for the microsomal CLint at 0.5 h, 1 µM in “in vitro [1]” and in “in vitro [2]” were 180 µL/min/mg and 176 µL/min/mg, respectively. The matching figures for `Cc1ccc(S(=O)(=O)N(C)C)cc1NC(=O)[C@@H](CC1CCCCC1)NC(=N)NC(=O)Cc1ccccc1C(F)(F)F`: 244 µL/min/mg and 208 µL/min/mg. For `CNS(=O)(=O)c1ccc(C)c(NC(=O)[C@@H](CC(C)C)NC(=N)NC(=O)Cc2ccc(OC)c(OC)c2)c1`, in that order: 188 µL/min/mg and 239 µL/min/mg.

Consider `Cc1ccc(S(=O)(=O)N(C)C)cc1NC(=O)[C@@H](CC1CCCCC1)NC(=N)NC(=O)Cc1ccc(C(F)(F)F)cc1`, for which the microsomal CLint at 0.5 h, 1 µM in “in vitro [1]” turned out to be 282 µL/min/mg; in the series “in vitro [2]”, 291 µL/min/mg. The matching figures for `COc1ccc(CC(=O)NC(=N)N[C@H](CN2CCOCC2)C(=O)Nc2cc(S(N)(=O)=O)ccc2C)cc1OC`: 49.1 µL/min/mg and 31.8 µL/min/mg. The matching figures for `COC[C@@H](NC(=N)NC(=O)Cc1ccc(OC)c(OC)c1)C(=O)Nc1cc(S(N)(=O)=O)ccc1C`: 47.2 µL/min/mg and 26.9 µL/min/mg. The matching figures for `COc1ccc(CC(=O)NC(=N)N[C@H](CCSC)C(=O)Nc2cc(S(N)(=O)=O)ccc2C)cc1OC`: 297 µL/min/mg and 262 µL/min/mg. Consider `Cc1ccc(S(=O)(=O)N(C)C)cc1NC(=O)[C@@H](CC1CCCCC1)NC(=N)NC(=O)Cc1ccc(F)c(F)c1`, for which the microsomal CLint at 0.5 h, 1 µM in “in vitro [1]” was 264 µL/min/mg; in the series “in vitro [2]” it was 163 µL/min/mg. Broadly, the inhibition is how much of the control response was suppressed. Higher therefore signals strong suppression. `CC(C)CC(=O)N[C@H](C(=O)N[C@H](C(=O)N[C@@H](CC(C)C)[C@@H](O)CC(=O)N[C@@H](C)C(=O)N[C@@H](CC(C)C)[C@@H](O)CC(=O)O)C(C)C)C(C)C` had an inhibition in series [3] of 98.7%. In the case of `CCN(CC)S(=O)(=O)c1ccc(C)c(NC(=O)[C@@H](CC2CCCCC2)NC(=N)NC(=O)Cc2ccc(OC)c(OC)c2)c1`, the microsomal CLint at 0.5 h, 1 µM worked out at 227 µL/min/mg in “in vitro [1]” and 221 µL/min/mg in “in vitro [2]”. For `CNS(=O)(=O)c1ccc(C)c(NC(=O)[C@@H](C)NC(=N)NC(=O)Cc2ccc(OC)c(OC)c2)c1`, in that order: 220 µL/min/mg and 134 µL/min/mg.

These data come from ChEMBL document CHEMBL4699662, “Identification and structure-activity relationship studies of small molecule inhibitors of the human cathepsin D” (Bioorg Med Chem, 2021).
